Source: patent US20140259881A1, “EXTERMINATION TECHNIQUES UTILIZING TERMITE EGG VOLATILE CALLING PHEROMONE AND QUEEN PHEROMONE” (National University Corporation Okayama University, priority 2009, published 2014)
Entries after “also recorded” stand apart in the source; their conditions may differ.

Tests used:
[1] = system: Reticulitermes speratus worker termites; experiment: Rate of carrying mimic eggs coated with reference pheromone plus volatile test sample into the egg mass; format: in vivo; settings: 10% aqueous solution of sample added to lysozyme + β-glucosidase reference pheromone on 0.5 mm glass beads, 25° C., compared to no addition, Tukey-Kramer HSD test
Procedure: 2.0 mg of white-egg lysozyme and 1.0 mg of β-glucosidase were dissolved in a 50% aqueous solution of glycerol (a mixture of lysozyme and β-glucosidase). To this reference pheromone solution were added a 10% aqueous solution of each of the following volatile ingredient samples to examine the effect of enhancing the activity of carrying mimic eggs. The added samples were: butyl butyrate, 1-butanol, 2-butyl butyrate, 2-butanol, 2-methyl-1-butanol, and n-butyl acetate.
To 100 glass beads having a diameter of 0.5 mm were added 2.0 μL/bead of the above-described reference pheromone solution and 2.0 μL/bead of each of the test sample solutions and mixed well for coating the surface of the beads with each test sample.
At 24 hours after the start of the experiment, the rate of carrying mimic eggs into the egg mass was determined (for each of the test samples, experiments were made on the same procedures). Three repetitions were made for each treatment. Carrying rates were subjected to arcsine-root transformation, followed by statistical comparison by analysis of variance and Tukey-Kramer HSD test. […] FIGS. 6 to 11 show rates of carrying mimic eggs coated with each of the test samples into the egg mass after 24 hours.

[2] = system: Reticulitermes speratus worker termites; experiment: as above; format: in vivo; settings: preliminary experiments
[3] = system: Reticulitermes speratus worker termites; experiment: Inhibitory effect on the differentiation into new termite queens by queen volatile pheromone samples; settings: volatile from unglazed ball, added every day; 25 days; 25° C.; compared to controls; Tukey-Kramer HSD test
[4] = system: termite; settings: patent documents 2 and 3; cited from earlier work

For `CCCCO` [1-butanol], the “activity of carrying mimic eggs / egg recognition activity (rate of carrying mimic eggs after 24 hours)” value [1] was “remarkable increase in the egg recognition activity; also recorded: significantly enhance the activity of carrying mimic eggs”.

In the case of `CCC(C)O` (stereo not drawn) [2-butanol], the “activity of carrying mimic eggs / egg recognition activity (rate of carrying mimic eggs after 24 hours)” value [1] is reported as “remarkable increase in the egg recognition activity; also recorded: significantly enhance the activity of carrying mimic eggs”.

With `CCCC(=O)OC(C)CC` (stereo not drawn) [2-butyl butyrate] the “activity of carrying mimic eggs / egg recognition activity (rate of carrying mimic eggs after 24 hours)” value [1] was “no statistical significance, but were observed to have a tendency to enhance the activity of carrying mimic eggs; also recorded: enhance the activity of carrying mimic eggs, as compared to no addition, but there was no difference of statistical significance”.

For `CCC(C)CO` (stereo not drawn) [2-methyl-1-butanol], the “activity of carrying mimic eggs / egg recognition activity (rate of carrying mimic eggs after 24 hours)” value [1] was “remarkable increase in the egg recognition activity; also recorded: significantly enhance the activity of carrying mimic eggs”.

For `CCCCOC(=O)CCC` [butyl butyrate], the “activity of carrying mimic eggs / egg recognition activity (rate of carrying mimic eggs after 24 hours)” value [1] was “no statistical significance, but were observed to have a tendency to enhance the activity of carrying mimic eggs; also recorded: enhance the activity of carrying mimic eggs, as compared to no addition, but there was no difference of statistical significance”.

In the case of `CCCC(=O)O` [butyric acid], the “effect of increasing the egg-carrying activity” value [2] is reported as “no effect of increasing the egg-carrying activity”.

For `CCCCOC(C)=O` [n-butyl acetate, reference compound], the “activity of carrying mimic eggs / egg recognition activity (rate of carrying mimic eggs after 24 hours)” value [1] was “no effect of enhancing the activity of carrying mimic eggs” and the “differentiation from worker termite into new termite queens” value [3] was “no effect of inhibiting the differentiation into new termite queens”.

In the case of lysozyme, the “egg-recognition pheromone activity alone” value [4] is given as “demonstrated to have egg-recognition pheromone activity alone”.
